A value given as a limit tells only on which side of the number the result lay.

For the experiment, the target named is Genome polyprotein (dengue virus type 2, UniProt P29990). In kind it is functional, Thailand/16681/1984.
Sequence of Genome polyprotein (P29990 1346-1475 limits assumed): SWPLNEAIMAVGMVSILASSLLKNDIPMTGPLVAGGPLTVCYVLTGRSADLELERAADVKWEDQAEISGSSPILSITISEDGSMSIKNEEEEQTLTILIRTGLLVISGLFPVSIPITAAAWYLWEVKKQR
Sequence of Genome polyprotein (P29990 1476-2093 limits assumed): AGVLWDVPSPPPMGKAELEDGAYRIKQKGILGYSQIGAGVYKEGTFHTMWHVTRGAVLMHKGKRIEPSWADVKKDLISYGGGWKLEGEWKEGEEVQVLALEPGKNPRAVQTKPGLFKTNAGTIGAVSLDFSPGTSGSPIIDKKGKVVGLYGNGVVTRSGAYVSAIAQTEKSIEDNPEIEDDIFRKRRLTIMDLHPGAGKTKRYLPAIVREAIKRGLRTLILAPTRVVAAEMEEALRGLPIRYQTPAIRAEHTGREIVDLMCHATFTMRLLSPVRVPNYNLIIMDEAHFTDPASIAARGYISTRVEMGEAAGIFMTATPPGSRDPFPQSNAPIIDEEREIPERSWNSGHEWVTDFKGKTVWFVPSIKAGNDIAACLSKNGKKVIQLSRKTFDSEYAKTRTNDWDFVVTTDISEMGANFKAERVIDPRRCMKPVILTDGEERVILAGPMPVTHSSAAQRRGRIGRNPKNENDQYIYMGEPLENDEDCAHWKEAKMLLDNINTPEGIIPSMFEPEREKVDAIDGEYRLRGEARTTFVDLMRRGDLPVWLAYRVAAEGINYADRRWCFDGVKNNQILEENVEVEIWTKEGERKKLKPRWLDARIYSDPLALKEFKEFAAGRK

For orientation: IC50 means the concentration at which inhibition is half-maximal. A low value points to inhibition by little substance. Turning to `NCc1cccc(NC(=O)c2cc(F)cc(NC(=O)OCc3ccccc3)c2F)c1`, the IC50 is above 99.5 µM.

`c1cnc2c(c1)CC[C@@H]2NCc1n[nH]c2ccccc12` returned an IC50 above 99.5 µM.

For the molecule `C[C@@H](Cc1c[nH]c2ccccc12)N1CCC(c2nc3ccccc3s2)CC1`, the IC50 is above 99.5 µM.

Take `Cc1nocc1S(=O)(=O)N[C@H](C(=O)Nc1cccc(CN)c1)c1ccc(OCc2ccccc2)cc1`: the IC50 was above 99.5 µM.

In turn, `Cc1ccc(-c2nc(NC(=O)[C@H](NC(=O)OCc3ccccc3)c3ccc(OCc4ccccc4)cc3)sc2CN(C)C)cc1` had an IC50 above 99.5 µM.

The molecule `CN(C)Cc1cc(NC(=O)c2cc(Cl)cc(NC(=O)OCc3ccccc3)c2)sn1` gave an IC50 above 99.5 µM.

In turn, `NCc1cccc(NC(=O)c2cc(Cl)cc(CN)c2)c1` showed an IC50 above 99.5 µM.

Molecule `NCc1cccc(NC(=O)[C@H](NC(=O)OCc2ccccc2)C2CCNCC2)c1` came in with an IC50 above 99.5 µM.

Turning to `NCc1cc(S(=O)(=O)Nc2ccc(Cl)cc2C(=O)O)ccc1Oc1ccccc1`, the IC50 was above 99.5 µM.

`NCc1cccc(NC(=O)[C@H](NC(=O)OCc2ccccc2)c2cccc(OCC3CCOCC3)c2)c1` returned an IC50 above 99.5 µM.

In turn, `O=C(O)c1cc(Cl)ccc1NS(=O)(=O)c1ccc(-c2cscn2)cc1` showed an IC50 of 87.5 µM.

Consider `CN1CCc2nc(NC(=O)c3cc(Cl)cc(NC(=O)OCc4ccccc4)c3)sc2C1`, for which the IC50 is above 99.5 µM.

As for `COc1cc(NC(=O)OCc2ccccc2)nc(C(=O)Nc2cccc(CN)c2)c1`, the IC50 was above 99.5 µM.

`COc1ncccc1S(=O)(=O)N[C@H](C(=O)Nc1cccc(CN)c1)c1ccc(OCc2ccccc2)cc1` gave an IC50 above 99.5 µM.

As for `COC(=O)[C@H](NC(=O)OC(C)(C)C)c1ccc(-c2csc(C)c2)cc1`, the IC50 was above 99.5 µM.

`CC1=NN(c2ccc(NS(=O)(=O)c3ccc(Cl)cc3C(=O)O)cn2)C(=O)C1` came in with an IC50 above 99.5 µM.

Molecule `CS(=O)(=O)c1cc(NC(=O)OCc2ccccc2)cc(C(=O)Nc2cccc(CN)c2)c1` had an IC50 above 99.5 µM.

The molecule `COC(=O)C1(S(=O)(=O)N[C@H](C(=O)Nc2cccc(CN)c2)c2ccc(OCc3ccccc3)cc2)CCC1` yielded an IC50 above 99.5 µM.

`c1nc(C2CCN(Cc3n[nH]c4c3CCC4)CC2)cs1` came in with an IC50 above 99.5 µM.

`CCC1([C@H](NC(=O)OCc2ccccc2)C(=O)NCc2cccc(CN)c2)CCCCC1` registered an IC50 above 99.5 µM.

In turn, `CC(C)(C)OC(=O)NCc1cccc(NC(=O)c2cc(N)cc(Cl)c2)c1` displayed an IC50 above 99.5 µM.

With `Cc1c(NC(=O)OCc2ccccc2)cc(C(=O)Nc2cccc(CN)c2)cc1C(F)(F)F`, the IC50 was found to be 91.4 µM.

`CN1CCn2nc(NC(=O)c3cc(Cl)cc(NC(=O)OCc4ccccc4)c3)cc2C1`: the IC50 was above 99.5 µM.

Take `c1nc(C2CCN(Cc3n[nH]c4c3COCC4)CC2)cs1`: the IC50 was above 99.5 µM.

`CC(C)N1CCc2nc(NC(=O)c3cc(Cl)cc(NC(=O)OCc4ccccc4)c3)sc2C1` displayed an IC50 above 99.5 µM.

Molecule `CC(C)c1cc(S(=O)(=O)N[C@H](C(=O)Nc2cccc(CN)c2)c2ccc(OCc3ccccc3)cc2)on1` showed an IC50 above 99.5 µM.

`Cc1nc(CCCNCc2n[nH]c3ccccc23)cs1`: the IC50 is above 99.5 µM.

On to `c1ccc2sc(C3CCN(CCc4c[nH]c5ccccc45)CC3)nc2c1`, for which the IC50 was above 99.5 µM.

`NC[C@H]1CC[C@H](NC(=O)c2cc(Cl)cc(NC(=O)OCc3ccccc3)c2)CC1` registered an IC50 above 99.5 µM.

For `NCc1cccc(NC(=O)[C@@H]2CCC[C@H](NC(=O)OCc3ccccc3)C2)c1`, the IC50 was above 99.5 µM.

In the case of `Cn1nc2c(c1NC(=O)c1cc(Cl)cc(NC(=O)OCc3ccccc3)c1)CNC2`, the IC50 was above 99.5 µM.

`c1ccc2c(CN[C@H]3CCc4ncsc4C3)n[nH]c2c1` showed an IC50 above 99.5 µM.

`NCc1cc(S(=O)(=O)Nc2ccc(Cl)cc2C(=O)NCC(F)(F)F)ccc1Oc1ccccc1`: the IC50 was above 99.5 µM.

The molecule `CC1(C)CNC[C@H](C(=O)Nc2cccc(CN)c2)C1` returned an IC50 above 99.5 µM.

`c1cc(CN2CCC(c3cscn3)CC2)[nH]n1` had an IC50 above 99.5 µM.

`O=C(O)c1cc(Cl)ccc1S(=O)(=O)N[C@H]1CC[C@H](Oc2cnccn2)CC1`: the IC50 is above 99.5 µM.

The molecule `NCc1cccc(NC(=O)[C@H](NS(=O)(=O)c2cccnc2)c2ccc(OCc3ccccc3)cc2)c1` showed an IC50 above 99.5 µM.

In turn, `NCc1cccc(NC(=O)[C@H](NC(=O)OCc2ccccc2)c2cccc(OCc3ncccn3)c2)c1` gave an IC50 above 99.5 µM.

`CCn1c(=O)c(N2CCC[C@H]2c2nncs2)nc2ccccc21` came in with an IC50 above 99.5 µM.

Molecule `COc1cc(NC(=O)OCc2ccccc2)cc(C(=O)Nc2cccc(CN)c2)c1` returned an IC50 above 99.5 µM.

`Cc1cc(CN(C)C)cc(NC(=O)[C@H](NC(=O)OCc2ccccc2)c2ccc(OCc3ccccc3)cc2)c1` registered an IC50 above 99.5 µM.

`NCc1cccc(NC(=O)c2cc(NC(=O)OCc3ccccc3)cc(Cl)c2Cl)c1` displayed an IC50 of 87.3 µM.

With `CCn1nc(-c2ccccc2)cc1NS(=O)(=O)c1ccc(Cl)cc1C(=O)O`, the IC50 is above 99.5 µM.

Turning to `C[C@H]1CNC[C@H](C(=O)Nc2cccc(CN)c2)C1`, the IC50 was above 99.5 µM.

As to `Cc1nn(C)cc1S(=O)(=O)N[C@@H](C(=O)Nc1cccc(CN)c1)c1ccc(OCc2ccccc2)cc1`, the IC50 was above 99.5 µM.

For `Cn1ccc(Nc2ccc(S(=O)(=O)Nc3ccc(Cl)cc3C(=O)O)cn2)n1`, the IC50 was above 99.5 µM.

Take `Cn1ccnc1S(=O)(=O)N[C@@H](C(=O)Nc1cccc(CN)c1)c1ccc(OCc2ccccc2)cc1`: the IC50 is above 99.5 µM.

For the molecule `NCc1ccc(Oc2ccc(S(=O)(=O)Nc3ccc(Cl)cc3C(=O)NCC(F)(F)F)cc2)cc1`, the IC50 is above 99.5 µM.

For the molecule `Cc1ccc(CN(C)C)cc1NC(=O)[C@@H](NC(=O)OCc1ccccc1)c1ccc(OCc2ccccc2)cc1`, the IC50 is above 99.5 µM.

Molecule `CCS(=O)(=O)N[C@@H](C(=O)Nc1cccc(CN)c1)c1ccc(OCc2ccccc2)cc1` yielded an IC50 above 99.5 µM.

The molecule `CC(C)N1CCc2nc(NC(=O)[C@H](NC(=O)OCc3ccccc3)c3ccc(OCc4ccccc4)cc3)sc2C1` registered an IC50 above 99.5 µM.

The molecule `Cn1nccc1CN1CCC(NS(=O)(=O)c2ccc(Cl)cc2C(=O)O)CC1` showed an IC50 above 99.5 µM.

`NCc1cccc(NC(=O)[C@@H]2C[C@H](NC(=O)OCc3ccccc3)[C@H]3C[C@H]32)c1` returned an IC50 above 99.5 µM.

In turn, `O=C(Nc1cccnc1)C1CCN(Cc2c[nH]c3ccccc23)CC1` yielded an IC50 above 99.5 µM.

`NCc1cccc(NC(=O)[C@H](NS(=O)(=O)C[C@H]2COCCO2)c2ccc(OCc3ccccc3)cc2)c1` registered an IC50 above 99.5 µM.

As to `Cc1csc(COc2cccc([C@H](NC(=O)OCc3ccccc3)C(=O)Nc3cccc(CN)c3)c2)n1`, it took 27.2 µM to reach half-maximal inhibition (IC50). This lies in the double-digit micromolar range.

Molecule `Cc1[nH]c2ccccc2c1CN1CCC(c2nc3ccccc3s2)CC1` had an IC50 above 99.5 µM.

Consider `C[C@H]1CC[C@H](CS(=O)(=O)N[C@H](C(=O)Nc2cccc(CN)c2)c2ccc(OCc3ccccc3)cc2)CC1`, for which the IC50 stood at 34.2 µM.

On to `COCc1ccccc1Nc1ccc(S(=O)(=O)Nc2ccc(Cl)cc2C(=O)O)cn1`, for which the IC50 was above 99.5 µM.

In the case of `NCc1cccc(NC(=O)[C@H](NS(=O)(=O)Cc2ccccc2)c2ccc(OCc3ccccc3)cc2)c1`, the IC50 is above 99.5 µM.

With `NC[C@H]1CC[C@H](CNC(=O)c2cc(Cl)cc(NC(=O)OCc3ccccc3)c2)CC1`, the IC50 was above 99.5 µM.

Turning to `NCc1cccc(NC(=O)[C@H](NC(=O)OCc2ccccc2)c2cccc(OCc3ccccn3)c2)c1`, the IC50 was above 99.5 µM.

For `NCc1ccc(Oc2ccc(S(=O)(=O)Nc3ccc(Cl)cc3C(=O)O)cc2)cc1`, the IC50 is above 99.5 µM.
